Where a name gives a salt, the structure may show the parent alone.
Tests used:
ErbB2 = target: T1, ErbB2 (Homo sapiens, UniProt P04626); experiment: ErbB-2 substrate phosphorylation assay (HTRF); format: biochemical
T1 construct: made in house; host or cells: baculovirus expression system
Summary of the method: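 Baculovirus-expressed EGFR (0.8 nM) or ErbB2 (10 nM) in enzyme mix, preincubated 1 h at 20 °C with compound (0.00027–47.6 μM final), then 90 min at 20 °C with substrate mix of 20 μM ATP, 0.8 uM biotinylated Peptide C, MnCl2, MOPS pH 7.5. Phosphotyrosine by HTRF; pIC50 reported.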

SK-MEL-28 tumor cells = experiment: Cell growth inhibition assay (CellTiter-Glo), SK-MEL-28; format: cell-based, Human; settings: Homo sapiens, SK-MEL-28, 72 h; 3 days incubation
Summary of the method: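 Cells plated at 500 cells/well in their growth media, dosed next day with nine-step 1:3 compound dilutions (final DMSO 0.2%), then incubated 3 days at 37° C, 5% CO2. Total ATP read by CellTiter-Glo luminescence as a surrogate for cell number; IC50 interpolated from 4-parameter fit versus DMSO controls.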

HT-29 tumor cells = experiment: Cell growth inhibition assay (CellTiter-Glo), HT-29; format: cell-based, Human; settings: for IC50: Homo sapiens
Experimental: (§1) Human breast tumor cells (BT474) were cultured in RPMI (Mediatech […]), containing 10% FBS (JRH Biosciences 12176) and 1% penicillin-streptomycin (Invitrogen 15140). Human head and neck tumor cells (HN5) were cultured in high glucose DMEM (Mediatech 50-013-PB) containing 10% FBS and 1% penicillin-streptomycin. Human colon tumor cells (Colo205) were cultured in RPMI (Mediatech 50-020-PB) containing 10% FBS and 1% penicillin-streptomycin. Human melanoma cancer cells (SK-MEL-28) were cultured in EMEM with nonessential amino acids (Mediatech 50-011-PB) containing 10% FBS, 1% sodium pyruvate (JT Baker 3354-04), and 1% penicillin-streptomycin. Human melanoma cancer cells (A375P F11s) were cultured in RPMI (Mediatech 50-020-PB) containing 10% FBS, 1% sodium pyruvate, and 1% penicillin-streptomycin. Human colon cancer cells (HT-29) were cultured in high glucose DMEM (Mediatech 50-013-PB) containing 10% FBS and 1% penicillin-streptomycin. Human melanoma cancer cells (SK-MEL-3) were cultured in McCoy's 5A (50-025-PB) containing 15% FBS, and 1% penicillin-streptomycin. All cell lines were maintained at 37° C. in a humidified 5% CO2, 95% air incubator. Cells were harvested using trypsin/EDTA (Invitrogen 25200), counted using a haemocytometer, and plated. For 96-well assays (using white full-area NUNC plates cat. #136102), cells were plated in 105 μL at the following densities (cells/well): HNS, 500; Colo 205, 500; SK-MEL-28, 500; A375P F11s, 500; HT-29, 500; SK-MEL-3, 500; and BT474, 3000. For 384-well assays (white full-area NUNC plates, cat. #781080), cells were plated in 48 μL at the following densities (cells/well): HNS, 500; Colo205, 500; SK-MEL-28, 500; A375P F11s, 500; HT-29, 500; SK-MEL-3, 500; and BT474, 2000.
(§2) The next day, compounds were diluted as follow: For 96-well assays, 13.5 μL of compound in DMSO were diluted using nine (9) serial 1:3 dilutions of 4.5 μL in 9 of DMSO. Medium (270 μL/well of RPMI with 10% FBS and 1% penicillin-streptomycin) was added to the plates. Aliquots (7 μL) were added to cells in the final assay giving a final DMSO concentration of 0.2%. For 384-well assays, 15 μL of compound in DMSO were diluted using nine (9) serial 1:3 dilutions of 5 μL in 10 μL of DMSO, followed by a further dilution of 5 μL of compound with 95 μL of medium, of which 2 μL were added to cells in the final assay giving a final DMSO concentration of 0.2%. Cells were incubated at 37° C., 5% CO2 for 3 days.
(§3) Total ATP was measured (as a surrogate estimate of cell number) using CellTiter-Glo® reagent (Promega G7571). Briefly, plates were removed from the incubator and allowed to equilibrate to room temperature for 30 minutes. CellTiter-Glo® (25 μL or 55 μL for 384-well or 96-well assays, respectively) reagent was added to each well and plates were shaken on an orbital plate shaker for 2 minutes. Plates were incubated without shaking for a further 30 minutes and read on an LJL Analyst GT reader in luminometer mode with an integration time of 0.5 seconds per well. Percent inhibition of cell growth was calculated relative to DMSO vehicle-treated control wells. Concentration of compound required to give 50% inhibition of vehicle-treated control cell growth (IC50) was interpolated using a 4-parameter fit for determining IC50 using the following equation: Y=A +((B−A)/(1+((C/X)̂D))) where […].

SK-MEL-3 tumor cells = experiment: Cell growth inhibition assay (CellTiter-Glo), SK-MEL-3; format: cell-based, Human; settings: for IC50: Homo sapiens, SK-MEL3
Experimental: as §1, §2, §3

T1 sequence (P04626 23-1255): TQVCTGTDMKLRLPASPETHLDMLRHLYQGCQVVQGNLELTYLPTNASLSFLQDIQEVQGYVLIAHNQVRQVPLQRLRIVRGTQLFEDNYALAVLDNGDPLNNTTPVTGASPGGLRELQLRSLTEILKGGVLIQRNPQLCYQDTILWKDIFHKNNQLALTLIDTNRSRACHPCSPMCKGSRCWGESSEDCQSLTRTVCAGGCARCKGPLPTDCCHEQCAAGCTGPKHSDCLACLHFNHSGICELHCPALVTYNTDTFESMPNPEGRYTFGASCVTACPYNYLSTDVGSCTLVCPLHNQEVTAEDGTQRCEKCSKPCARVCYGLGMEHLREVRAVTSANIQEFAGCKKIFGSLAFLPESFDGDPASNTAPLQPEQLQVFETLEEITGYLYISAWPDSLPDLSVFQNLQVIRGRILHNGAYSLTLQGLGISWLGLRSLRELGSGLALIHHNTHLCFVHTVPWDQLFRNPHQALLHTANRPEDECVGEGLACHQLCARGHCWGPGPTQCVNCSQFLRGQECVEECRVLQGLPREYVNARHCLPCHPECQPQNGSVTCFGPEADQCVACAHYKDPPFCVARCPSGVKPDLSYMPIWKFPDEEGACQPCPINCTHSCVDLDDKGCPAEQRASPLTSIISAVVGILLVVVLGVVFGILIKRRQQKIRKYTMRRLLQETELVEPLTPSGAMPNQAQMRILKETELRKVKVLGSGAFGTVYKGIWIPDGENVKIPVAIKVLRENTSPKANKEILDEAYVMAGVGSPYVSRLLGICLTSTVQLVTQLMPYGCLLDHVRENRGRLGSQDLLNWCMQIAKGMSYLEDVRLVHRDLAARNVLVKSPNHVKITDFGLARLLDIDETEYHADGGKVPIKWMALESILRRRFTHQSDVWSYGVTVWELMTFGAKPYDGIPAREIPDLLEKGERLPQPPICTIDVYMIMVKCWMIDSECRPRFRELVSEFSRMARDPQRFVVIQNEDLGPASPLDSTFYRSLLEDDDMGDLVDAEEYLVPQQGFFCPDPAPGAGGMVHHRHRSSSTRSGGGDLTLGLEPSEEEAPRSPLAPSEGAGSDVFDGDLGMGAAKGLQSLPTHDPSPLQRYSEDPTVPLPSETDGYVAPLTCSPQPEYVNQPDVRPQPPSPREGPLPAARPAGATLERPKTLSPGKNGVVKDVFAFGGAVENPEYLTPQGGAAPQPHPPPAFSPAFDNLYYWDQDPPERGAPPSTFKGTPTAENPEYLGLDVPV

Row | Compound | IC50 (ErbB2) [µM] | IC50 (SK-MEL-28 tumor cells) [µM] | Activity in HT-29 Tumor Cells (HT-29 tumor cells) | Activity in SK-MEL-3 Tumor Cells (SK-MEL-3 tumor cells) | IC50 (HT-29 tumor cells) [µM] | IC50 (SK-MEL-3 tumor cells) [µM]
1 | CCNc1nc(-c2cccc(NS(=O)(=O)c3ccccc3)c2)c(-c2ccnc(Nc3ccc(OCCN4CCCC4)c(F)c3)n2)s1 [Example 1, N-(3-(2-(Ethylamino)-5-{2-[(3-fluoro-4-[[2-(1-pyrrolidinyl)ethyl]oxy}phenyl)amino]-4-pyrimidinyl}-1,3-thiazol-4-yl)phenyl]benzenesulfonamide] | 0.1 to 1 | 0.1 to 1 | ++ (activity of between 100 nM and 1 μM in HT-29 tumor cells) | ++ (activity of between 100 nM and 1 μM in SK-MEL-3 tumor cells) |  | 
2 | COCCN1CCN(c2ccc(Nc3nccc(-c4sc(C(C)C)nc4-c4cccc(NS(=O)(=O)c5ccccc5)c4)n3)cn2)CC1 [Example 6, N-[3-(2-(1-Methylethyl)-5-{2-[(6-{4-[2-(methyloxy)ethyl]-1-piperazinyl}-3-pyridinyl)amino]-4-pyrimidinyl}-1,3-thiazol-4-yl)phenyl]benzenesulfonamide] | 0.1 to 1 | < 0.1 |  |  | < 0.1 | < 0.1
3 | CC(C)c1nc(-c2cccc(NS(=O)(=O)c3ccccc3)c2)c(-c2ccnc(Nc3ccc(N4CCOCC4)nc3)n2)s1 [Example 8, N-{3-[2-(1-Methylethyl)-5-(2-{[6-(4-morpholinyl)-3-pyridinyl]amino}-4-pyrimidinyl)-1,3-thiazol-4-yl]phenyl}benzenesulfonamide hydrochloride] | > 1 | < 0.1 |  |  | 0.1 to 1 | < 0.1
4 | COc1ccc(Nc2nccc(-c3sc(C(C)C)nc3-c3cccc(NS(=O)(=O)c4ccccc4)c3)n2)cc1N1CCN(CCC#N)CC1 [Example 9, N-{3-[5-(2-{[3-[4-(2-Cyanoethyl)-1-piperazinyl]-4-(methyloxy)phenyl]amino}-4-pyrimidinyl)-2-(1-methylethyl)-1,3-thiazol-4-yl]phenyl}benzenesulfonamide] | < 0.1 | < 0.1 |  |  | 0.1 to 1 | < 0.1
5 | CC(=O)N1CCN(c2ccc(Nc3nccc(-c4sc(C(C)C)nc4-c4cccc(NS(=O)(=O)c5ccc(F)cc5)c4)n3)cn2)CC1 [Example 10, N-{3-[5-(2-{[6-(4-Acetyl-1-piperazinyl)-3-pyridinyl]amino}-4-pyrimidinyl)-2-(1-methylethyl)-1,3-thiazol-4-yl]phenyl}-4-fluorobenzenesulfonamide] | > 1 | < 0.1 |  |  | 0.1 to 1 | 0.1 to 1
6 | CC(=O)N1CCN(c2ccc(Nc3nccc(-c4sc(C(C)C)nc4-c4cccc(NS(=O)(=O)c5cccc(F)c5)c4)n3)cn2)CC1 [Example 11, N-{3-[5-(2-{[6-(4-Acetyl-1-piperazinyl)-3-pyridinyl]amino}-4-pyrimidinyl)-2-(1-methylethyl)-1,3-thiazol-4-yl]phenyl}-3-fluorobenzenesulfonamide] | 0.1 to 1 | < 0.1 |  |  | < 0.1 | < 0.1
7 | CC(=O)N1CCN(c2ccc(Nc3nccc(-c4sc(C(C)C)nc4-c4cccc(NS(=O)(=O)c5ccccc5F)c4)n3)cn2)CC1 [Example 12, N-{3-[5-(2-{[6-(4-Acetyl-1-piperazinyl)-3-pyridinyl]amino}-4-pyrimidinyl)-2-(1-methylethyl)-1,3-thiazol-4-yl]phenyl}-2-fluorobenzenesulfonamide] | 0.1 to 1 | < 0.1 |  |  | < 0.1 | < 0.1
8 | CC(C)c1nc(-c2cccc(NS(=O)(=O)c3c(F)cccc3F)c2)c(-c2ccnc(Nc3ccc(OC4CCN(CCS(C)(=O)=O)CC4)c(F)c3)n2)s1 [Example 13, 2,6-Difluoro-N-{3-[5-(2-{[3-fluoro-4-({1-[2-(methylsulfonyl)ethyl]-4-piperidinyl}oxy)phenyl]amino}-4-pyrimidinyl)-2-(1-methylethyl)-1,3-thiazol-4-yl]phenyl}benzenesulfonamide hydrochloride] | > 1 | < 0.1 |  |  | 0.1 to 1 | < 0.1
9 | CC(C)c1nc(-c2cccc(NS(=O)(=O)c3c(F)cccc3F)c2)c(-c2ccnc(Nc3ccc(N4CCOCC4)c(C(=O)O)c3)n2)s1 [Example 14, 5-({4-[4-(3-{[(2,6-Difluorophenyl)sulfonyl]amino}phenyl)-2-(1-methylethyl)-1,3-thiazol-5-yl]-2-pyrimidinyl}amino)-2-(4-morpholinyl)benzoic acid] | > 1 | < 0.1 |  |  | 0.1 to 1 | < 0.1
10 | CC(C)c1nc(-c2cccc(NS(=O)(=O)c3c(F)cccc3F)c2)c(-c2ccnc(Nc3ccc(N4CCN5CCOC[C@H]5C4)nc3)n2)s1 [Example 15] | 0.1 to 1 | < 0.1 |  |  | < 0.1 | < 0.1
11 | CC(C)c1nc(-c2cccc(NS(=O)(=O)c3c(F)cccc3F)c2)c(-c2ccnc(Nc3ccc(N4CCN(CCS(C)(=O)=O)CC4)c(F)c3)n2)s1 [Example 16, 2,6-Difluoro-N-{3-[5-{2-[(3-fluoro-4-{4-[2-(methylsulfonyl)ethyl]-1-piperazinyl}phenyl)amino]-4-pyrimidinyl}-2-(1-methylethyl)-1,3-thiazol-4-yl]ohenyl}benzenesulfonamide hydrochloride] | 0.1 to 1 | < 0.1 |  |  | < 0.1 | < 0.1
12 | CC(C)c1nc(-c2cccc(NS(=O)(=O)c3c(F)cccc3F)c2)c(-c2ccnc(Nc3ccc(N4CCOCC4)nc3)n2)s1 [Example 17, 2,6-Difluoro-N-{3-[2-(1-methylethyl)-5-(2-{[6-(4-morpholinyl)-3-pyridinyl]amino}-4-pyrimidinyl)-1,3-thiazol-4-yl]phenyl}benzenesulfonamide] | > 1 | < 0.1 |  |  | < 0.1 | < 0.1
13 | COc1ccc(Nc2nccc(-c3sc(C(C)C)nc3-c3cccc(NS(=O)(=O)c4c(F)cccc4F)c3)n2)cc1N(C)C [Example 18, N-{3-[5-(2-{[3-(Dimethylamino)-4-(methyloxy)phenyl]amino}-4-pyrimidinyl)-2-(1-methylethyl)-1,3-thiazol-4-yl]phenyl}-2,6-difluorobenzenesulfonamide trifluoroacetate] | 0.1 to 1 | < 0.1 |  |  | < 0.1 | < 0.1
14 | COc1cc(N2CCN(CCS(C)(=O)=O)CC2)c(C)cc1Nc1nccc(-c2sc(C(C)C)nc2-c2cccc(NS(=O)(=O)c3c(F)cccc3F)c2)n1 [Example 19] | < 0.1 | 0.1 to 1 |  |  | > 1 | 0.1 to 1
15 | CC(C)c1nc(-c2cncc(NS(=O)(=O)c3c(F)cccc3F)c2)c(-c2ccnc(Nc3ccc(N4CCOCC4)nc3)n2)s1 [Example 47] |  | < 0.1 |  |  | 0.1 to 1 | < 0.1
16 | CS(=O)(=O)CCN1CCN(c2ccc(Nc3nccc(-c4oc(N5CCCC5)nc4-c4ccc(F)c(NS(=O)(=O)c5c(F)cccc5F)c4)n3)cc2F)CC1 [Example 119] | 0.1 to 1 | 0.1 to 1 |  |  | 0.1 to 1 | 

From patent publication US20110319392A1, “Thiazole Sulfonamide And Oxazole Sulfonamide Kinase Inhibitors” (priority 2009, published 2011)
